Values belong to the molecule of their own block, whether it stands above or below them.
Columns and labels:
[1] = test system: Salmonella typhimurium, strains TA98 and TA100; assay: Mutagenicity assessment (bacterial reverse mutation screen); type: cell-based; details: TA98 and TA100, presence or absence of S-9 mix
Method: Studies were conducted by Sequani (Ledbury, Herefordshire, UK) to assess compounds of the invention for their ability to induce mutations in two histidine dependent auxotrophic mutants of Salmonella typhimurium, strains TA98 and TA100 in vitro.
The mutation screen was conducted using the plate incorporation method and was performed in both the presence and absence of S-9 mix (a liver post-mitochondrial fraction derived from the livers of Aroclor 1254 treated rats). The bacteria were exposed to test compounds dissolved in dimethylsulphoxide, which solvent was also used as the negative control. The dose levels used were 0.32, 1.6, 8, 40, 200, 1000 or 5000 μg/plate.

[2] = test system: rat, Cynomolgus macaque or human hepatocytes; assay: Analysis of metabolites in hepatocytes; type: in vitro ADME; details: 10 μM, 0, 60 and 90 minutes
Method: Studies were conducted by BioFocus (Saffron Walden, UK) to determine the metabolic fate of the compound of Example 16 following incubation with rat, Cynomolgus macaque or human hepatocytes.
Separate incubations (n=3) of the compound of Example 16 (10 μM initial concentration) or DMSO control, were performed with cryopreserved hepatocytes from each species (0.5 million cell/mL) at 37° C. for 0, 60 and 90 minutes before termination of reactions and compound extraction with acetonitrile. Sample replicates were pooled prior to analysis.
Potential metabolites were identified using time-of-flight (TOF) and triple quadruple (TQ) mass spectrometers.

B-Raf (V600E) = B-Raf (V600E) (Homo sapiens (Human), UniProt P15056, V600E); assay: KINOMEscan binding of kinase to standard ligand
Method: (§1) Kinase enzyme binding activities of compounds disclosed herein may be determined using a proprietary assay which measures active site-directed competition binding to an immobilized ligand (Fabian, M. A. et al., Nature Biotechnol., 2005, 23:329-336). These assays may be conducted by DiscoverX (formerly Ambit; San Diego, Calif.). The percentage inhibition produced by incubation with a test compound may be calculated relative to the non-inhibited control.

B-Raf = B-Raf (Homo sapiens (Human), UniProt P15056); assay: KINOMEscan binding of kinase to standard ligand
Method: as §1

[3] = test system: adoptive transfer colitis; assay: Adoptive transfer in mice; type: in vivo, SCID mice
Method: On Study day 0, female Balb/C mice are terminated and spleens obtained for CD45RB^high cell isolation (Using SCID IBD cell Separation protocol). Approximately 4×10^5 cells/mL CD45RB^high cells are then injected intraperitoneally (100 μL/mouse) into female SCID animals. On study day 14, mice are weighed and randomized into treatment groups based on body weight. On Day 14, compounds are administered BID, via oral gavage, in a peanut oil vehicle at the dose levels outlined below in Tables 6a and 6b and a dose volume of 5 mL/kg. Treatment continues until study day 42, at which point the animals are necropsied 4 hours after the morning administration. The colon length and weight are recorded and used as a secondary endpoint in the study as a measurement of colon oedema. The colon is then divided into six cross-sections, four of which are used for histopathology scoring (primary endpoint) and two are homogenised for cytokine analysis. Data shown is the % inhibition of the induction window between nave animals and vehicle animals, where higher inhibition implies closer to the non-diseased, nave, phenotype.

TNBS-induced colitis = TNBS-induced colitis in mice; type: in vivo, BDF1 mice; details: conducted over 2 days; oral
Method: Non-fasted, 10-12 week old, male BDF1 mice are dosed by oral gavage twice daily with either vehicle (5 mL/kg), reference item (Budesonide 2.5 mg/kg) or test compound (1 or 5 mg/kg) one day before (Day −1) stimulation of the inflammatory response by treatment with 2,4,6-trinitrobenzenesulphonic acid (TNBS) (15 mg/mL in 50% ethanol/50% saline). On Day 0 of the study TNBS (200 μL) is administered intra-colonically via a plastic catheter with BID dosing of the vehicle, reference or test compound continuing for 2 or 4 days. During the study, animals are weighed every day and stool observations are made and recorded as a score, based on stool consistency. At the time of sacrifice on Day 2 (or Day 4), the large intestine is removed and the length and weight recorded. Sections of the colon are taken for histopathology scoring to determine disease severity.

non-mutant kinases = assay: KinomeScan selectivity scores; type: binding; details: evidenced by lower selectivity scores
Method: These assays may be conducted by DiscoverX (formerly Ambit; San Diego, Calif.). The percentage inhibition produced by incubation with a test compound may be calculated relative to the non-inhibited control.

[4] = test system: intestinal mucosa biopsies from ulcerative colitis patients; assay: Human biopsy assay (cytokine release from intestinal mucosa biopsies); type: cell-based; details: 1 μg/mL, 24 hours
Method: Intestinal mucosa biopsies are obtained from the inflamed regions of the colons of IBD patients. The biopsy material is cut into small pieces (2-3 mm) and placed on steel grids in an organ culture chamber at 37° C. in a 5% CO2/95% O2 atmosphere in serum-free media. DMSO control or test compounds at the desired concentration are added to the tissue and incubated for 24 hr in the organ culture chamber. The supernatant is harvested for determination of IL-6, IL-8, IL-1β and TNFα levels by R&D ELISA.

GSK 3α = GSK 3α (Homo sapiens (Human), UniProt P49840); assay: GSK 3α enzyme inhibition (Z-LYTE FRET, Method 1 / Method 2); type: biochemical; details: read-out: IC50 Values for Enzyme Inhibition GSK3α
Method: The enzyme inhibitory activities of compounds disclosed herein are determined by FRET using synthetic peptides labelled with both donor and acceptor fluorophores (Z-LYTE, Invitrogen Ltd., Paisley, UK).
The following two assay variants can be used for determination of GSK 3α inhibition.
The inhibitory activities of compounds of the invention against the GSK 3α enzyme isoform (Invitrogen), are evaluated by determining the level of activation/phosphorylation of the target peptide. The GSK3-α protein (500 ng/mL, 2.5 μL) is mixed with the test compound (2.5 μL at either 4 μg/mL, 0.4 μg/mL, 0.04 μg/mL, or 0.004 μg/mL) for 2 hr at RT. The FRET peptide (8 μM, 2.5 μL), which is a phosphorylation target for GSK3α, and ATP (40 μM, 2.5 μL) are then added to the enzyme/compound mixture and the resulting mixture incubated for 1 hr. Development reagent (protease, 5 μL) is added for 1 hr prior to detection in a fluorescence microplate reader (Varioskan® Flash, ThermoFisher Scientific).
In all cases, the site-specific protease cleaves non-phosphorylated peptide only and eliminates the FRET signal. Phosphorylation levels of each reaction are calculated using the ratio of coumarin emission (donor) over fluorescein emission (acceptor), for which high ratios indicate high phosphorylation and low ratios indicate low phosphorylation levels. […]

CYP2C9 = CYP2C9 (Homo sapiens (Human), UniProt P11712); assay: CYP2C9 inhibition studies; type: in vitro ADME
Method: Assessment of certain in vitro ADME (absorption, distribution, metabolism, and excretion) parameters for certain compounds of the invention was conducted by BioFocus (Saffron Walden, UK).

[5] = Hydrolytic stability study; type: physicochemical; details: DMSO and water (3:1), 1 mg/mL, 60° C.
Method: Chemical stability of compounds of the invention was assessed in a mixture of DMSO and water (3:1) at a test compound concentration of 1 mg/mL
Sample Preparation • A 1.0 mg sample of test compound was dissolved in 750 μL of DMSO. Water (250 μL) was added slowly, ensuring no precipitation occurred.
Recording Stability • A 50 μL aliquot of the test solution was removed and analysed in duplicate by 5 μL HPLC injections. The peak area for the test compound was recorded following manual integration of the corresponding UV trace. • The test solution was heated to 60° C., with stirring, and 50 μL aliquots removed for HPLC analysis at 5 and 24 h timepoints.

CYP2C9, sequence (P11712 whole entry): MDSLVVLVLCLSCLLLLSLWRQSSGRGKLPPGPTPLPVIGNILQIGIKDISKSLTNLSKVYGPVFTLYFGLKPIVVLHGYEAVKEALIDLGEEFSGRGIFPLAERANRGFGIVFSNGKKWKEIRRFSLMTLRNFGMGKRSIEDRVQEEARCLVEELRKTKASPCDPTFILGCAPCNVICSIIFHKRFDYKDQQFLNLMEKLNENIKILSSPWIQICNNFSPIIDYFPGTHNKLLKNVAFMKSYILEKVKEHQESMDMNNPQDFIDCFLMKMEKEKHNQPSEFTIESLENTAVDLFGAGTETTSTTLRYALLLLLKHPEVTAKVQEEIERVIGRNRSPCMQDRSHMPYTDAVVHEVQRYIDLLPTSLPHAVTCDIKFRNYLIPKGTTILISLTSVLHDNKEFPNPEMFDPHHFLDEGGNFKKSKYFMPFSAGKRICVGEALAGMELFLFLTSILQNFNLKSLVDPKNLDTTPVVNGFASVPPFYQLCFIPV
B-Raf (V600E), sequence (P15056 whole entry V600E): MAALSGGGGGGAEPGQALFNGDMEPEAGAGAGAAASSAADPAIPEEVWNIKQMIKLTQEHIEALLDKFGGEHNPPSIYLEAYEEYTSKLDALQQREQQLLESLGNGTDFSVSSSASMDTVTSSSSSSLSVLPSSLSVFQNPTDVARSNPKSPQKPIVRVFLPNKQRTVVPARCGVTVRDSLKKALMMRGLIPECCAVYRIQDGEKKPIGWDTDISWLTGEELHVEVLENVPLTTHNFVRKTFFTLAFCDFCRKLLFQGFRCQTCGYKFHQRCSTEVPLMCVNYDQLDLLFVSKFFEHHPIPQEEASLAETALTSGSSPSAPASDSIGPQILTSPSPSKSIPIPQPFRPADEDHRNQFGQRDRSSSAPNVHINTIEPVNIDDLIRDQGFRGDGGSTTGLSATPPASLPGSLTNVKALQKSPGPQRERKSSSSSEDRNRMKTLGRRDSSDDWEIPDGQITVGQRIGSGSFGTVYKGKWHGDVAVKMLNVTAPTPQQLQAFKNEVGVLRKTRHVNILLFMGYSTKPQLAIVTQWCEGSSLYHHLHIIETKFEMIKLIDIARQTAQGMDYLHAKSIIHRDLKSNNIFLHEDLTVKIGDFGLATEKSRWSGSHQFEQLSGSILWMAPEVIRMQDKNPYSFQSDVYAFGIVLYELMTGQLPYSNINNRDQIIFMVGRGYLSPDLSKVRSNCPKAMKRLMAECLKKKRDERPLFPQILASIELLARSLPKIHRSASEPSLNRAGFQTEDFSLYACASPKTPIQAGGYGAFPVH
GSK 3α, sequence (P49840 whole entry): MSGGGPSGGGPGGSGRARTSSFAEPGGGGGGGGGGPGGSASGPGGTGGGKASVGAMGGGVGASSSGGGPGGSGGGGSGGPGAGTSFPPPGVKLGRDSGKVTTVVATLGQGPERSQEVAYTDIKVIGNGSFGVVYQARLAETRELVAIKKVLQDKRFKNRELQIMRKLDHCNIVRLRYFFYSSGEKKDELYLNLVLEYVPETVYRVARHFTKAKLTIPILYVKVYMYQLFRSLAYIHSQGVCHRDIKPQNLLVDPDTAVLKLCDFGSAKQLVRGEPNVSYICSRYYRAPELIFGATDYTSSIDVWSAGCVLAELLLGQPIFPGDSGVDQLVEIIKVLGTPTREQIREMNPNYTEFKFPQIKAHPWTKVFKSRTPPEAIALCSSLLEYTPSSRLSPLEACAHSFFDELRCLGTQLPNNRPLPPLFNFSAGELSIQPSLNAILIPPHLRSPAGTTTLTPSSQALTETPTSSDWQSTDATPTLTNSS
B-Raf, sequence (P15056 whole entry): as the sequence (P15056 whole entry V600E) above, with E600V counted along it

SMILES: C#Cc1cc(Nc2nccc(Oc3ccc(NC(=O)Nc4cc(C(C)(C)C)cc(NS(C)(=O)=O)c4OC)c4ccccc34)n2)cc(C(=O)NCCOCCOCCOC)c1 [Example 16, 3-((4-((4-(3-(5-(tert-Butyl)-2-methoxy-3-(methylsulfonamido)phenyl)ureido)naphthalen-1-yl)oxy)pyrimidin-2-yl)amino)-5-ethynyl-N-(2-(2-(2-methoxyethoxy)ethoxy)ethyl)benzamide]
increases in revertant colonies [1]: no dose-related or statistically significant increases in revertant colonies
metabolism at the naphthalene moiety [2]: no products were noted that could be connected to metabolism at the naphthalene moiety
number of metabolites resulting from oxidation on the polyethylene glycol chain of the amide moiety [2]: 8
effect on the binding of B-Raf (V600E) to its standard ligand (B-Raf (V600E)): did not have any significant effect
effect on the binding of B-Raf to its standard ligand (B-Raf): did not have any significant effect
activity in T cell driven model of colonic inflammation (ratios of colon weight to length) ([3]; adoptive transfer): displayed significant activity
levels of pro-inflammatory cytokines in samples of colon tissue ([3]; adoptive transfer model): significantly reduced levels of pro-inflammatory cytokines
activity in TNBS model of colonic inflammation (histopathology analysis) (TNBS-induced colitis): displayed substantial activity
selectivity compared to the Reference Compound (non-mutant kinases): substantially improved selectivities
cytokine (IL-1β, IL-6 and IL-8) release compared to the DMSO control [4]: significantly inhibited

IC50 (GSK 3α): 249 nM
SMILES: COc1cc(Nc2cc(Oc3ccc(NC(=O)Nc4cc(C(C)(C)C)cc(NS(C)(=O)=O)c4OC)c4ccccc34)ccn2)cc(C(=O)NCCN2CCNCC2)c1 [Example 85(q)]

% Inh (inhibition at 5 μM reported instead) (CYP2C9; CYP2C9, 0 min preincubation): 31^[†] %
% Inh (inhibition at 5 μM reported instead) (CYP2C9; CYP2C9, 30 min preincubation): 66^[†] %
SMILES: C#CC(C)(C)c1cc(NC(=O)Nc2ccc(Oc3ccnc(Nc4cc(C)c5[nH]ncc5c4)n3)c3ccccc23)n(-c2ccc(C)cc2)n1 [Ref Cpd A]

decomposition [5]: underwent substantial decomposition
SMILES: C#Cc1cc(Nc2nccc(Oc3ccc(NC(=O)Nc4cc(C(C)C)nn4-c4ccc(C)cc4)c4ccccc34)n2)cc(C(=O)NCCN2CCOCC2)c1 [Reference Compound B, 3-ethynyl-5-((4-((4-(3-(3-isopropyl-1-(p-tolyl)-1H-pyrazol-5-yl)ureido)naphthalen-1-yl)oxy)pyrimidin-2-yl)amino)-N-(2-morpholinoethyl)benzamide]
